{"source": "patent EP4537820A1", "about": "“COMPOUND AND COMBINATIONS COMPRISING SAID COMPOUND TO IMPROVE IMMUNE RESPONSE” (Institut Gustave-Roussy, priority 2023, dated 2025)", "key": {"20S proteasome": {"tested_on": "T1, 20S proteasome", "T1 construct": "purified 20S proteasome from human erythrocytes; purchased Biotechne E-360-050; host or cells: human erythrocytes", "experiment": "Second confirmatory counter-screen of hits on the proteasome alone", "type": "biochemical, human", "details": "counter-screen on 20S proteasome only, without REGγ", "description": "The 3 chemical libraries tested were obtained from the NIH : The Natural Products set (NP.V) consisting of 390 compounds, the Oncology Approved Drugs set (AOD.IX) consisting of 147 FDA-approved compounds and the Diversity set (DIV.VI) consisting of 1584 compounds. Libraries were prepared and screened with a Biomek FXP workstation in 384 well plates. Compounds activity was assessed using a fluorescence activity test of the proteasome using the Bz-VGR-AMC fluorogenic substrate (#BML-BW9375-0005, Enzo Life Sciences). 50µM of the fluorogenic substrate was used with 20µM of the tested compound, and 2nM of 20S human proteasome (#E-360-050, Biotechne) in presence or absence of 50nM of human REGγ (#E-384-MTO, Biotechne). After preparation of the mix, plates were incubated for 2h at 37°C before being read on a Spectramax i3 microplate reader from Molecular devices (Excitation wavelength : 345nm; Emission wavelength : 445nm). […]\nUsing the control condition without REGγ, they then eliminated compounds that were inhibiting the 20S proteasome, using the 95% interval of confidence of the 20S control for each plate. […] Fluorescence was measured every minute with a FLUOstar plate reader (BMG Labtech). […]\nAfter conducting the screening and validating the quality control using a custom algorithm, they analyzed the data to select their hits. […]"}, "20S-REGy complex": {"biological_target": "20S-REGy complex (Homo sapiens, UniProt P61289)", "sequence (P61289 whole entry, one chain of several)": "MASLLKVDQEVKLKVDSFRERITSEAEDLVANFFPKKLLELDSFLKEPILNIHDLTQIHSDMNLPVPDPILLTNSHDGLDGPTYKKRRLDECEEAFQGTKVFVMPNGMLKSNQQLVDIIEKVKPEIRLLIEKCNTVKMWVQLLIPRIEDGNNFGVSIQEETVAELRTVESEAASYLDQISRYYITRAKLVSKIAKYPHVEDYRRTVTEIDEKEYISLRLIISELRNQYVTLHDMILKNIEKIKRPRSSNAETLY", "experiment": "Peptide degradation assay with Fluorescamine (KH-52), with REGγ", "type": "biochemical", "details": "20S-REGγ complex, 50 µM compound, 37°C", "description": "Degradation of the 52 amino acid peptide KH-52: […], Boulpicante et al.) by the 20S proteasome was followed by amino-acid group generation using Fluorescamine (#F9015, Sigma-Aldrich). The peptide substrate was incubated at 100µM with 25nM 20S, with or without 160nM REGγ and with different concentration of the tested compounds or DMSO. Assays were performed in 100µL in phosphate buffer (pH 6.8) and incubated at 37°C in a water bath for 8 hours. After 4, 6 and 8 hours, 22µL of sample were retrieved and added to 88µL of phosphate buffer before being stored at - 20°C prior to revelation. For the revelation, samples were thawed and filtered in a centrifuge 20min at 4°C 1kDa filters (#OD003C34, Pall Corporation). To avoid any amino group contamination, filtered were washed in phosphate buffer before use. 20µL of filtered-sample were plated in triplicates in a black 96-wells plate (#237108, Thermo Scientific) and 10µL of fluorescamine (1mg/mL, in 100% acetone) was added to the samples. The plate was placed on agitation for 1min before the reaction was stopped by adding 200µL of water to each well. The fluorescence intensity was measured using a FluoSTAR plate reader (BMG Labtech) with excitation wavelength at 355nm and emission wavelength at 460nm.\nThese findings were established through both in vitro degradation assays and T cell experiments. […]"}, "[1]": {"tested_on": "MCA205-Glob-SL8-intron cells", "experiment": "MHC-I expression, antigen presentation and PD-L1 surface expression by flow cytometry", "type": "cell-based, mouse", "details": "24 hours", "description": "2×10^5 of MCA205-Glob-SL8-intron cells were plated in 6-well plates and incubated overnight. The next day cells were treated with different concentrations of drugs for 24h. After treatment, cells were harvested with trypsin before being stained with Zombie Aqua (#423102, Biolegend) and antibodies presented in Table 1 following the protocol provided by the supplier. Samples were acquired on a FACS LSRFortessa X20 (BD Biosciences) and data was analysed with FlowJo (V10) software (TreeStar, Inc.). Table 1: Panels of antibodies for the study of surface expression of MHC-I molecules and SIINFEKL presentation in MCA205-Glob-SL8-intron.\nInventors previously reported a novel and unexpected role of the REGγ-20S complex in the degradation of MHC-I peptides in cancer. In order to elucidate the potential impact of compound 58 on the REGγ-20S complex's modulation of antigenic peptide degradation, they treated mouse MCA205 cells stably expressing the globin-SL8-intron construct with increasing concentrations of compound 58 for 24 hours.\nAdditionally, they explored the impact of compound 58 on the expression of MHC-I on the surface of MCA205 cells stably expressing the globin-SL8-intron construct. After treating these cells with varying doses of compound 58 for 24 hours, they assessed the levels of murine MHC-I H2-K^b and H2-D^b using flow cytometry. The percentage of cells labeled positively for H2-K^b and H2-D^b in the treated conditions was compared to that in the DMSO control condition.\nFurthermore, inventors investigated whether compound 58 had the capability to alter PD-L1 expression on the cell surface of treated tumor cells. To examine this, they exposed MCA205 cells stably expressing the globin-SL8-intron construct to varying concentrations of compound 58 for 24 hours and subsequently assessed PD-L1 expression levels via flow cytometry."}, "[2]": {"details": "5µm to 25 µM, compared to DMSO control"}}, "data": [{"smiles": "Cc1ccc(N=Nc2ccc(C)cc2NC(=O)Nc2ccccc2F)cc1", "note": "[compound 58]", "values": [{"measurement": "inhibition of the 20S core alone", "setting": "20S proteasome", "value": "without inhibiting the 20S core alone"}, {"measurement": "rate of peptide bond hydrolysis of KH-52", "setting": "20S-REGy complex", "value": "notably decelerated the rate of peptide bond hydrolysis"}, {"measurement": "presentation of the SIINFEKL peptide (Kb-SIINFEKL complexes on the cell surface)", "setting": "[1]; 25µM, 25-D1.16 antibody, compared to untreated cells", "value": "significant increase"}, {"measurement": "expression of H2-D^b molecules on the cell surface", "setting": "[1]; [2]", "value": "dose-dependent increase"}, {"measurement": "expression of H2-K^b molecules on the cell surface", "setting": "[1]; [2]", "value": "dose-dependent increase"}, {"measurement": "PD-L1 expression on the cell surface", "setting": "[1]; varying concentrations, dose-dependent manner", "value": "significantly increased PD-L1 expression"}]}]}
